# According to PubChem BioAssay (NCI):
#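 Grown in 96-well plates, cells were treated for 48 hours with each compound at five concentrations. Insufficient inhibition: endpoint recorded as highest concentration tested. The concentration for full growth arrest is given as TGI.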
# Columns and labels:
# Test in all cases: growth of human tumour cells (NCI), 48 h
# [1] = tested on: TK-10 renal
# [2] = tested on: OVCAR-8 ovarian
# [3] = tested on: SF-268 CNS
# [4] = tested on: COLO 205 colon
# [5] = tested on: A498 renal
# [6] = tested on: CCRF-CEM leukemia
# [7] = tested on: U251 CNS
# [8] = tested on: UACC-62 melanoma
# [9] = tested on: SK-MEL-2 melanoma
# [10] = tested on: M14 melanoma
# [11] = tested on: HOP-92 NSCLC
# [12] = tested on: MDA-MB-435
# [13] = tested on: RXF 393 renal
# [14] = tested on: OVCAR-3 ovarian
# [15] = tested on: LOX IMVI melanoma
# [16] = tested on: ACHN renal
# [17] = tested on: SK-MEL-5 melanoma
# [18] = tested on: SNB-19 CNS
# [19] = tested on: SR leukemia
# [20] = tested on: HS 578T breast
# [21] = tested on: SF-539 CNS
# [22] = tested on: KM12 colon
# [23] = tested on: SK-OV-3 ovarian
# [24] = tested on: DU-145 prostate
# [25] = tested on: OVCAR-5 ovarian
# [26] = tested on: CAKI-1 renal
# [27] = tested on: A549 NSCLC
# [28] = tested on: SK-MEL-28 melanoma
# [29] = tested on: HCT-15 colon
# [30] = tested on: MDA-N
# [31] = tested on: NCI/ADR-RES ovarian
# [32] = tested on: NCI-H23 lung
# [33] = tested on: UO-31 renal
# [34] = tested on: 786-0 renal
# [35] = tested on: NCI-H522 lung
# [36] = tested on: BT-549 breast
# [37] = tested on: K-562 leukemia
# [38] = tested on: SF-295 CNS
# [39] = tested on: PC-3 prostate
# [40] = tested on: HCC-2998 colon
# [41] = tested on: MOLT-4 leukemia
# [42] = tested on: EKVX NSCLC
# [43] = tested on: SN12C renal
# [44] = tested on: MDA-MB-231 breast
# [45] = tested on: OVCAR-4 ovarian
# [46] = tested on: NCI-H460 lung
# [47] = tested on: NCI-H226 lung
# [48] = tested on: HL-60(TB) leukemia
# [49] = tested on: HT29 colon
# [50] = tested on: MALME-3M melanoma
# [51] = tested on: SW-620 colon
# [52] = tested on: RPMI-8226 leukemia
# [53] = tested on: HOP-62 NSCLC
# [54] = tested on: MCF7 breast
# [55] = tested on: SNB-75 CNS
# [56] = tested on: T-47D breast
# [57] = tested on: UACC-257 melanoma
# [58] = tested on: HCT-116 colon
smiles,measurement,setting,value
COc1cc2nc(-c3c(F)cccc3F)n(Cc3c(F)cccc3F)c2cc1Cc1c(F)cccc1F,TGI,[1],> 100 µM
same,TGI,[2],> 100 µM
same,TGI,[3],> 100 µM
same,TGI,[4],> 100 µM
same,TGI,[5],> 100 µM
same,TGI,[6],> 100 µM
same,TGI,[7],> 100 µM
same,TGI,[8],> 100 µM
same,TGI,[9],> 82.2 µM
same,TGI,[10],> 100 µM
same,TGI,[11],> 30.8 µM
same,TGI,[12],> 100 µM
same,TGI,[13],> 28.9 µM
same,TGI,[14],> 100 µM
same,TGI,[15],> 100 µM
same,TGI,[16],> 100 µM
same,TGI,[17],> 100 µM
same,TGI,[18],> 100 µM
same,TGI,[19],> 100 µM
same,TGI,[20],> 100 µM
same,TGI,[21],> 100 µM
same,TGI,[22],> 100 µM
same,TGI,[23],> 100 µM
same,TGI,[24],> 100 µM
same,TGI,[25],> 100 µM
same,TGI,[26],> 100 µM
same,TGI,[27],> 100 µM
same,TGI,[28],1.4 µM
same,TGI,[29],> 100 µM
same,TGI,[30],> 100 µM
same,TGI,[31],> 100 µM
same,TGI,[32],> 100 µM
same,TGI,[33],> 100 µM
same,TGI,[34],> 100 µM
same,TGI,[35],> 100 µM
same,TGI,[36],> 100 µM
same,TGI,[37],> 100 µM
same,TGI,[38],> 100 µM
same,TGI,[39],> 100 µM
same,TGI,[40],> 100 µM
same,TGI,[41],> 100 µM
same,TGI,[42],> 100 µM
same,TGI,[43],> 100 µM
same,TGI,[44],> 100 µM
same,TGI,[45],10.9 µM
same,TGI,[46],> 100 µM
same,TGI,[47],> 100 µM
same,TGI,[48],> 100 µM
same,TGI,[49],> 100 µM
same,TGI,[50],> 100 µM
same,TGI,[51],> 100 µM
same,TGI,[52],> 100 µM
same,TGI,[53],> 100 µM
same,TGI,[54],> 63.9 µM
same,TGI,[55],> 70.8 µM
same,TGI,[56],> 100 µM
same,TGI,[57],> 100 µM
same,TGI,[58],> 100 µM
